Experimental data taken from PubChem BioAssay (NCI).
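Five concentrations, 48 hours, 96-well plates. Here, GI50 denotes the concentration required for 50% inhibition of growth. At the TGI there is no net growth.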

Assays:
Assay in all cases: NCI-60 cell line screen, 48 h
[1] = tested on: 786-0 renal
[2] = tested on: A498 renal
[3] = tested on: A549 NSCLC
[4] = tested on: ACHN renal
[5] = tested on: BT-549 breast
[6] = tested on: CAKI-1 renal
[7] = tested on: CCRF-CEM leukemia
[8] = tested on: COLO 205 colon
[9] = tested on: DU-145 prostate
[10] = tested on: EKVX NSCLC
[11] = tested on: HCC-2998 colon
[12] = tested on: HCT-116 colon
[13] = tested on: HCT-15 colon
[14] = tested on: HL-60(TB) leukemia
[15] = tested on: HOP-62 NSCLC
[16] = tested on: HOP-92 NSCLC
[17] = tested on: HS 578T breast
[18] = tested on: HT29 colon
[19] = tested on: IGROV1 ovarian
[20] = tested on: K-562 leukemia
[21] = tested on: KM12 colon
[22] = tested on: LOX IMVI melanoma
[23] = tested on: M14 melanoma
[24] = tested on: MALME-3M melanoma
[25] = tested on: MCF7 breast
[26] = tested on: MDA-MB-231 breast
[27] = tested on: MDA-MB-435
[28] = tested on: MOLT-4 leukemia
[29] = tested on: NCI-H226 lung
[30] = tested on: NCI-H23 lung
[31] = tested on: NCI-H460 lung
[32] = tested on: NCI-H522 lung
[33] = tested on: NCI/ADR-RES ovarian
[34] = tested on: OVCAR-3 ovarian
[35] = tested on: OVCAR-4 ovarian
[36] = tested on: OVCAR-5 ovarian
[37] = tested on: OVCAR-8 ovarian
[38] = tested on: PC-3 prostate
[39] = tested on: RPMI-8226 leukemia
[40] = tested on: RXF 393 renal
[41] = tested on: SF-268 CNS
[42] = tested on: SF-295 CNS
[43] = tested on: SF-539 CNS
[44] = tested on: SK-MEL-2 melanoma
[45] = tested on: SK-MEL-28 melanoma
[46] = tested on: SK-MEL-5 melanoma
[47] = tested on: SK-OV-3 ovarian
[48] = tested on: SN12C renal
[49] = tested on: SNB-19 CNS
[50] = tested on: SNB-75 CNS
[51] = tested on: SR leukemia
[52] = tested on: SW-620 colon
[53] = tested on: T-47D breast
[54] = tested on: TK-10 renal
[55] = tested on: U251 CNS
[56] = tested on: UACC-257 melanoma
[57] = tested on: UACC-62 melanoma
[58] = tested on: UO-31 renal

**Q.** Which results are given for `COC(=O)[C@]1(C)CC[C@]2(C)CC[C@]3(C)C(=CC(=O)[C@@H]4[C@@]5(C)CCC(=O)NC(C)(C)[C@@H]5CC[C@]43C)[C@@H]2C1`?
**A.** GI50 [1]: 18.3 µM; TGI [1]: 35 µM; GI50 [2]: 21.4 µM; TGI [2]: 46.4 µM; GI50 [3]: 32.8 µM; TGI [3]: > 100 µM; GI50 [4]: 24 µM; TGI [4]: 89.4 µM; GI50 [5]: 12.8 µM; TGI [5]: 28 µM; GI50 [6]: 35.9 µM; TGI [6]: > 100 µM; GI50 [7]: 15.1 µM; TGI [7]: 44.6 µM; GI50 [8]: 17.1 µM; TGI [8]: 50.4 µM; GI50 [9]: 20.9 µM; TGI [9]: 89.6 µM; GI50 [10]: 25.5 µM; TGI [10]: > 100 µM; GI50 [11]: 18.4 µM; TGI [11]: 38.7 µM; GI50 [12]: 10.8 µM; TGI [12]: 25.6 µM; GI50 [13]: 16.1 µM; TGI [13]: > 100 µM; GI50 [14]: 16.2 µM; TGI [14]: 41.6 µM; GI50 [15]: 29 µM; TGI [15]: > 100 µM; GI50 [16]: 10.7 µM; TGI [16]: 24.2 µM; GI50 [17]: 32.7 µM; TGI [17]: > 100 µM; GI50 [18]: 11.9 µM; TGI [18]: 80.5 µM; GI50 [19]: 26.7 µM; TGI [19]: > 100 µM; GI50 [20]: 7.4 µM; TGI [20]: 66.5 µM; GI50 [21]: 16.4 µM; TGI [21]: 38 µM; GI50 [22]: 16.6 µM; TGI [22]: 32.3 µM; GI50 [23]: 19.3 µM; TGI [23]: 44.4 µM; GI50 [24]: 18.3 µM; TGI [24]: 38 µM; GI50 [25]: 13.3 µM; TGI [25]: 43.5 µM; GI50 [26]: 20.9 µM; TGI [26]: 48.7 µM; GI50 [27]: 26.6 µM; TGI [27]: > 100 µM; GI50 [28]: 10.5 µM; TGI [28]: 31.6 µM; GI50 [29]: 14.9 µM; TGI [29]: 35.4 µM; GI50 [30]: 31 µM; TGI [30]: > 100 µM; GI50 [31]: 20.1 µM; TGI [31]: 58.8 µM; GI50 [32]: 18.2 µM; TGI [32]: 69.3 µM; GI50 [33]: 20.2 µM; TGI [33]: 53.6 µM; GI50 [34]: 15.3 µM; TGI [34]: 32.7 µM; GI50 [35]: 27.6 µM; TGI [35]: > 100 µM; GI50 [36]: 21.3 µM; TGI [36]: 38.9 µM; GI50 [37]: 29.2 µM; TGI [37]: > 100 µM; GI50 [38]: 4.69 µM; TGI [38]: 21.3 µM; GI50 [39]: 12 µM; TGI [39]: 34.7 µM; GI50 [40]: 13.5 µM; TGI [40]: 27.5 µM; GI50 [41]: 28.2 µM; TGI [41]: > 100 µM; GI50 [42]: 19.4 µM; TGI [42]: 43.8 µM; GI50 [43]: 14.6 µM; TGI [43]: 28.6 µM; GI50 [44]: 21.6 µM; TGI [44]: 95.3 µM; GI50 [45]: 18.5 µM; TGI [45]: 36.5 µM; GI50 [46]: 14.7 µM; TGI [46]: 28.9 µM; GI50 [47]: 24 µM; TGI [47]: > 100 µM; GI50 [48]: 17.1 µM; TGI [48]: 35.2 µM; GI50 [49]: 29 µM; TGI [49]: > 100 µM; GI50 [50]: 25.5 µM; TGI [50]: > 100 µM; GI50 [51]: 15.5 µM; TGI [51]: 50.5 µM; GI50 [52]: 27.3 µM; TGI [52]: > 100 µM; GI50 [53]: 9.97 µM; TGI [53]: > 100 µM; GI50 [54]: 40.2 µM; TGI [54]: > 100 µM; GI50 [55]: 23.3 µM; TGI [55]: 89.3 µM; GI50 [56]: 24.4 µM; TGI [56]: 94.3 µM; GI50 [57]: 15.3 µM; TGI [57]: 38.2 µM; GI50 [58]: 16.9 µM; TGI [58]: 33.3 µM
